Structures can show the parent of a compound that is named as a salt.
How the values were obtained:
Acute toxicity in mice = settings: mouse, in vivo, ip; intraperitoneal, male I.C.R. mice, survivals at one week
Protocol: Test: Acute Toxicity in Mice
A normal saline containing each of the test compound mentioned below and 0.5% carboxymethylcellulose was given intraperitoneally to male I.C.R. (Institute of Cancer Research) strain mice aged 5 weeks, weighing 33-35 g. LD50 values were calculated from the survivals of mice at one week after the administration of the test compound.

[1] = test system: P.C.A. reaction in S.D. strain rats; experiment: Inhibition test of P.C.A. (Passive Cutaneous Anaphylaxis) reaction in S.D. strain rats, rat reaginic antiserum against egg albumin; assay type: in vivo
Protocol: (a) Rat reaginic antiserum against egg albumin
A solution of egg albumin (2 mg) in B. pertussis-diphtheria-tetanus mixed vaccine (1 ml.) (made by Takeda Chemical Industries Ltd.) was mixed with an equal volume of incomplete adjuvant (made by Difco Laboratories) to give an emulsion. The emulsion was given subcutaneously in a single dose of 1 ml. divided equally (0.25 ml.) to the four foot pads of male S.D. (Sprague-Dawley) strain rats aged 8 weeks, each weighing about 300 g.
Five days after the administration, a solution of egg albumin (0.5 mg.) in B. pertussis-diphtheria-tetanus mixed vaccine (0.5 ml.) was further given intramuscularly in a single dose of 0.5 ml. divided equally (0.25 ml.) to 2 places of thigh of the same rats.
Three days after the second administration, blood samples were collected from femoral artery of the rats and allowed to stand at ambient temperature for 5 hours. The separated supernatant was centrifuged at 4° C. (10,000 r.p.m.× 1 hour). The antisera thus obtained were stored at -80° C. prior to use.
(2) Inhibition test of P.C.A. (Passive Cutaneous Anaphylaxis) reaction
(a) Inhibitory effect on P.C.A. reaction in S.D. strain rats
Fifteen male S.D. strain rats aged 8 weeks, each weighing about 270 g were divided equally into 3 groups.
A rat reaginic antiserum (0.07 ml.) as prepared by the above (1)-(a) was given intracutaneously to the depilated back of each rat of Group I and Group II. On the other hand, a rat normal serum (0.07 ml.) was given intracutaneously to the depilated back of each rat of Group III, respectively.
Thirty hours after the administration, a normal saline (0.5 ml.) containing egg albumin (7.5 mg.) and Evans blue (2.5 mg.) was intravenously given to each rat of Groups I-III in order to bring about P.C.A., respectively.
Beforehand, 3 hours, 1 hour and […] before the intravenous administration to bring about P.C.A., a normal saline (1 ml.) containing the prescribed amount of N-methyllaurotetanine hydrochloride and carboxymethylcellulose (0.5 %) was given orally, intraperitoneally or intravenously to each rat of Group I and a normal saline (1 ml.) containing only carboxymethylcellulose (0.5% was also given orally, intraperitoneally or intravenously to each rat of Group II.
Thirty minutes after challenge with antigen, the animals were sacrificed and then skinned. To each of the sensitized spots punched, was added a mixture (7 ml.) of acetone and 2% aqueous sodium alkylbenzenesulfonate solution (4:1) and then the mixture was homogenized. The homogenate was shaken at ambient temperature for 2 hours and filtered. Optical density at 620 nm of the filtrate was determined and from the value of the optical density, inhibitory effect of P.C.A. reaction was calculated by using the following equation. [formula] A: Optical Density Value of Group II B: Optical Density Value of Group I
C: Optical Density Value of Group III

[2] = test system: P.C.A. reaction in Donryu strain rats; experiment: Inhibition of P.C.A. reaction in Donryu strain rats, rat hyperimmune antiserum against egg albumin; assay type: in vivo; settings: Donryu rat (Table 2-I)
Protocol: (b) Rat hyperimmune antiserum against egg albumin
A solution of egg albumin (20 mg.) in normal saline (1 ml.) was mixed with complete adjuvant (1 ml.) (made by Difco Laboratories) to given an emulsion. The emulsion was subcutaneously given in a single dose of 1 ml. divided equally (0.25 ml.) to the four pads of male S.D. strain rats aged 6 weeks, each weighing about 200 g. (The first immunization).
One week after the administration, an emulsion which was prepared by mixing a solution of egg albumin (10 mg.) in normal saline (1 ml.) with complete adjuvant (1 ml.) was further given subcutaneously (at 3 places) and intramuscularly (at 1 place) in a single dose of 1 ml. divided equally (0.25 ml.) to thigh of the same rats. (The second immunization).
Three weeks after the second administration, a solution of egg albumin (1 mg.) in normal saline (1 ml.) was further given intracutaneously in a single dose of 0.3 ml. divided equally (0.1 ml.) to 3 places of the same rats. (The third immunization).
One week after the third administration, blood samples were collected from rats and treated in substantially the same manner as described in the above item (a). The antisera thus obtained were stored at -80° C. prior to use.
Further, an inhibition test on P.C.A. reaction using the rat hyperimmuneantiserum against egg albumin was carried out in substantially the same manner as described in the above, excepting that the intravenous administration to bring about P.C.A. was carried out at 5.5 hours after the administration of the serum and antiserum. And inhibitory effect on the P.C.A. reaction was also calculated in substantially the same manner as described in the above.
(b) Inhibitory effect on P.C.A. reaction in Donryu strain rat
The following tests were carried out in substantially the same manner as described in the above item (2)-(a).
(i) Test compound: N:methyllaurotetanine hydrochloride
Test animal: Male Donryu strain rats aged 8 weeks, weighing about 130 g.
Challenge: A normal saline (0.3 ml.) containing egg albumin (4.5 mg.) and Evans blue (1.5 mg.).
(ii) Test commpound: glaucine or boldine
Test animal: Male Donryu strain rats aged 8 weeks, weighing 140-150 g.
Challenge: the same as the above item (b)-(i).

## COc1cc2c(cc1O)CC1c3c(cc(OC)c(OC)c3-2)CCN1C (stereo not drawn) [N-Methyllaurotetanine hydrochloride]
Acute toxicity in mice
  LD50 at 168 h: 91.7 mg/kg
[1]; intraperitoneal, 4 mg/kg
  Inhibitory effect on P.C.A. reaction: 6%
[1]; intraperitoneal, 13 mg/kg
  Inhibitory effect on P.C.A. reaction: 80%
[1]; intraperitoneal, 40 mg/kg
  Inhibitory effect on P.C.A. reaction: 85%
[1]; intravenous
  ED50: 2.5 mg/kg
[1]; intravenous, 1 mg/kg
  Inhibitory effect on P.C.A. reaction: 24%
[1]; intravenous, 3 mg/kg
  Inhibitory effect on P.C.A. reaction: 57%
[1]; intravenous, 9 mg/kg
  Inhibitory effect on P.C.A. reaction: 85%
[1]; ip, intraperitoneal
  ED50: 4.8 mg/kg
[1]; oral
  ED50: 100 mg/kg
[1]; oral, 20 mg/kg
  Inhibitory effect on P.C.A. reaction: 16%
[1]; oral, 66 mg/kg
  Inhibitory effect on P.C.A. reaction: 35%
[1]; oral, 200 mg/kg
  Inhibitory effect on P.C.A. reaction: 85%
[2]; intraperitoneal, 4 mg/kg
  Inhibitory effect on P.C.A. reaction: 10%
[2]; intraperitoneal, 13 mg/kg
  Inhibitory effect on P.C.A. reaction: 55%
[2]; intraperitoneal, 40 mg/kg
  Inhibitory effect on P.C.A. reaction: 50%
[2]; intravenous, 6.7 mg/kg
  Inhibitory effect on P.C.A. reaction: 50%
[2]; intravenous, 20 mg/kg
  Inhibitory effect on P.C.A. reaction: 80%
[2]; oral, 20 mg/kg
  Inhibitory effect on P.C.A. reaction: 30%
[2]; oral, 66 mg/kg
  Inhibitory effect on P.C.A. reaction: 40%
[2]; oral, 200 mg/kg
  Inhibitory effect on P.C.A. reaction: 65%

— US4185119A, “Antiallergic methods” (priority 1977, dated 1980)
